The record followed here is ChEMBL document CHEMBL1138747, “Synthesis and structure--activity relationship in a class of indolebutylpiperazines as dual 5-HT(1A) receptor agonists and serotonin reuptake inhibitors” (J Med Chem, 2004).

The target of the test is T1, Serotonin 3 (5-HT3) receptor (Rattus norvegicus, UniProt P35563+Q9JJ16).
T1 sequence (P35563 whole entry): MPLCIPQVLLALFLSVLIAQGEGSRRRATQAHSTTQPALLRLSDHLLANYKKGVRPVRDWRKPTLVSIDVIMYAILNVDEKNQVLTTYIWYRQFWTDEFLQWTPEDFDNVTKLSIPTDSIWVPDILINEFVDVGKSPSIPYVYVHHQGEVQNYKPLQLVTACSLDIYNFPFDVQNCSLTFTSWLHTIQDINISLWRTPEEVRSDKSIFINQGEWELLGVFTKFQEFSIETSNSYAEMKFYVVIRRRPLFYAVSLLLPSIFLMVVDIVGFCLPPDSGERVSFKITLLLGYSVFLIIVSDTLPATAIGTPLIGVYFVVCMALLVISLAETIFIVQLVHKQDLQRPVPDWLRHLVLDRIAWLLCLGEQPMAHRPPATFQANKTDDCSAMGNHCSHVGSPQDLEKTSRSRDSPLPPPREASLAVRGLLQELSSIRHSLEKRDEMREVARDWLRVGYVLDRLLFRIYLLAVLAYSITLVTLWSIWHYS
T1 sequence (Q9JJ16 whole entry): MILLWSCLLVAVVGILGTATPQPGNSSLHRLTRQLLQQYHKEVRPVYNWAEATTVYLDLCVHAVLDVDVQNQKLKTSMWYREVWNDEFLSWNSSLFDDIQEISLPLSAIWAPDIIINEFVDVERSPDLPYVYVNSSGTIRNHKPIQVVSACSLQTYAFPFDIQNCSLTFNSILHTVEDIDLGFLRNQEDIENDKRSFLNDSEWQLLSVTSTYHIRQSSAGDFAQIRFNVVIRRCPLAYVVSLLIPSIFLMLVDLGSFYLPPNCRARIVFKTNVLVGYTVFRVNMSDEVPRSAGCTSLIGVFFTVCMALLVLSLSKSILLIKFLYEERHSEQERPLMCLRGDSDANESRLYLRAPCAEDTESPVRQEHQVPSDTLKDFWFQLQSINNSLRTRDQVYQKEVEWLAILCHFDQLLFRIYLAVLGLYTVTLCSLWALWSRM
As to the kind of experiment: Inhibition against rat hydroxytryptamine 3 receptor. The class given is protein-complex assay.

For orientation: IC50 means the midpoint of a concentration-inhibition curve. Regarding `N#Cc1ccc2[nH]cc(CCCCN3CCN(c4ccc5oc(C(N)=O)cc5c4)CC3)c2c1` [VILAZODONE], the IC50 came out at 4.3 µM.
